{"source": "patent US7585839B2", "about": "“Medical uses of intercellular communication facilitating compounds” (Zealand Pharma A/S, priority 2001, dated 2009)", "key": {"[1]": {"tested_on": "calcium-induced arrythmias", "experiment": "Calcium-induced arrhythmia model in mice (CaCl2-induced 2nd degree AV-block)", "type": "in vivo", "settings": "mouse, in vivo"}, "[2]": {"tested_on": "human osteoblastic cells", "experiment": "Intercellular calcium waves after mechanical stimulation, human osteoblastic cells", "type": "cell-based", "experimental": "(§1) Human osteblast cells (hOB): Cells were isolated from human bone marrow obtained by puncture of the posterior iliac spine of healthy volunteers (aged 20-36): 10-15 ml marrow material was collected in 15 ml PBS+Ca,Mg (Life Technologies, Cat.No. 14040) with 100 U/ml Heparin (Sigma, Cat.No. H-3149). The mononuclear fraction of the marrow was isolated on a Lymphoprep gradient (Nycomed Pharma, Cat.No. 1001967), by centrifugation at 2200 rpm for 30 min. After harvesting, the mononuclear fraction was washed once with culture medium and centrifuged at 1800 rpm for 10 min. Subsequently cells were counted and plated in culture medium at 8×10^6 cells/100 mm dish. hOB medium (all reagents obtained from Life Technologies): MEM w/o Phenol Red w/Glutamax (Cat.No. 041-93013) supplemented with 10% heat inactivated fetal calf serum (Cat.No. 10106) and 0.1% Penicillin/Streptomycin (Cat.No. 15140). Medium was changed the following day and the cells were cultured at 37° C. in 5% CO2 with medium change every 7 days. After 3-4 weeks of culture the cells had reached 70% confluence. The medium was then supplemented with 100 nM Dexamethasone (Sigma, Cat.No. D-4902) for 7 days. Cells were then plated for video imaging experiments: a 25 mm #1 glass coverslip was placed in a 35 mm dish (or each well of a 6-well multidish), cells were plated at 2.5×10^5 cells/coverslip and cultured for 2-3 days before use. […]"}, "[3]": {"tested_on": "ROS 17/2.8 cells", "experiment": "Intercellular calcium waves after mechanical stimulation, ROS 17/2.8 cells", "type": "cell-based, rat", "settings": "48 hours hypoxia 3-6% O2; 10^−8 M, 10 minutes; 2.2 cells before", "experimental": "ROS 17/2.8 cells: Cells were cultured in 100 mm dishes at 37° C. with 5% CO2 and medium change every 2-3 days. ROS medium (all reagents obtained from Life Technologies): MEM (Cat.No. 31095) supplemented with 10% heat-inactivated calf serum (Cat.No. 16170), 1% NEAA (Cat.No. 11140), 1% Sodium Pyruvate (Cat.No. 11360), 1% L-Glutamine (Cat.No. 25030) and 0.1% Penicillin/Streptomycin (Cat,No. 15140). For video imaging experiments, cells were plated on coverslips at 2-3×10^5 cells/coverslip and cultured for 2-3 days before use.\nThe cells cultured on coverslips were loaded with 5 μM fura-2-AM (Molecular Probes, Cat.No. F-1221), for 30 minutes at 37° C., and incubated in fresh medium for 20 minutes. Coverslips were then affixed to a PDMI-2 culture chamber (Medical Systems Corp.), maintained at 37° C. with superfused CO2, on a Zeiss Axiovert microscope. Intercellular calcium waves were induced by mechanical stimulation of a single cell using a borosilicate glass micro pipette affixed to an Eppendorf 5171 micromanipulator. Imaging was performed using a MetaMorph imaging system (Universal Imaging). The excitation light (340 and 380 nm) was provided by a monochromator (T.I.L.L. Photonics GmbH). Images were acquired with an intensified CCD camera (Dage MTI) and digitized with a Matrox MVP image processing board."}, "[4]": {"tested_on": "human osteoblast", "experiment": "Lucifer Yellow microinjection dye transfer, human osteoblasts", "type": "cell-based", "settings": "48 hours hypoxia 3-6% O2; 10 minutes incubation; 7 cells before", "experimental": "as §1"}, "[5]": {"tested_on": "alkaline phosphatase (ALP) activity of human osteoblasts", "experiment": "Alkaline phosphatase assay, human osteoblasts", "type": "cell-based", "experimental": "Day 1: Cells were plated in 96-well plates at a conc. of 8000 cells/well (hOB) or 3000 cells/well (ROS) in 200 μl normal culture medium.\nDay 2: Medium was changed on the cells.\nDay 4: (Day 3 for ROS): Cells were washed with 200 μl MEM, 0.1% BSA (Sigma, Cat.No. A-9418).\nDay 8: (Day 5 for ROS): Alkaline Phosphatase (ALP) assay is a colorimetric endpoint method for measuring enzyme activity, and was done using Alkaline Phosphatase Kit (Sigma, Cat.No. 104-LL): Cells were washed once with 200 μl PBS+Ca,Mg. 100μl Alkaline Buffer Solution was added to each well and plate was placed at 37° C. for 10 min. 100 μl Substrate Solution was added to each well and plate was incubated at 37° C. for 30 min. 100 μl 2.0 N NaOH was added to each well to stop the reaction. Absorbance was measured using a plate reader at 405 nm."}, "[6]": {"tested_on": "phosphoinositol turnover in neonatal rat cardiomyocytes", "settings": "conference abstract, cited from earlier work"}, "[7]": {"tested_on": "human osteoblast", "settings": "human osteoblast cultures and rat osteosarcoma cell lines; conference abstract; cited from earlier work"}}}
{"substance": "Ac-D-Tyr-D-Pro-D-4Hyp-Gly-D-Ala-Gly-NH2 [Compound 2]", "values": [{"measurement": "CaCl2 mice In vivo, %", "setting": "[1]", "value": "65 +/− 7%"}, {"measurement": "average number of cells in the calcium wave", "setting": "[2]; after ATP desensitization, 10^−8 mol/l, 10 minutes, 4.5 cells before", "value": 6.2, "unit": "cells"}, {"measurement": "average number of cells in the calcium wave", "setting": "[2]; medium without glucose, 10^−8 M, 1.4 cells before", "value": 2.9, "unit": "cells"}, {"measurement": "average number of cells in the calcium wave", "setting": "[3]", "value": 5.4, "unit": "cells"}, {"measurement": "dye transfer, number of cells", "setting": "[4]", "value": 9, "unit": "cells"}, {"measurement": "stimulation of ALP activity during hypoxia, greater than during normoxia", "setting": "[5]; 5% O2 four days, 10^−11 to 10^−8 mol/l", "value": "about 15%"}, {"measurement": "ALP activity", "setting": "[5]; normal culture conditions, 1×10^−13 to 1×10^−6", "value": "increased ALP activity at most of the concentrations tested"}, {"measurement": "noradrenalin-induced level of PI turnover", "setting": "[6]; normal athmospheric and nutritional conditions", "value": "do not alter"}, {"measurement": "noradrenalin-induced PI turnover, % of the normal level", "setting": "[6]; oxygen and glucose deprivation", "value": "~90", "unit": "%"}, {"measurement": "hypoxia-induced decrease of intercellular communication", "setting": "[7]", "value": "completely reversed"}]}
